Results from patent US20160159816A1, “SUBSTITUTED THIENOPYRIMIDINES AND PHARMACEUTICAL USE THEREOF” (BAYER PHARMA AKTIENGESELLSCHAFT, priority 2013, published 2016).

molecular target: T1, human full-length MKNK1 (Homo sapiens, UniProt Q9BUB5, T385D); test: MKNK1 kinase high ATP assay (TR-FRET); assay type: biochemical; conditions: high ATP (2 mM), after preincubation with MKNK1; compounds of the present invention (Table 1a)
T1 construct: GST (N); purchased Carna Biosciences 02-145; host or cells: insect cells, baculovirus expression system
Experimental: MKNK1-inhibitory activity at high ATP of compounds of the present invention after their preincubation with MKNK1 was quantified employing the TR-FRET-based MKNK1 high ATP assay as described in the following paragraphs.
A recombinant fusion protein of Glutathione-S-Transferase (GST, N-terminally) and human full-length MKNK1 (amino acids 1-424 and T344D of accession number BAA 19885.1), expressed in insect cells using baculovirus expression system and purified via glutathione sepharose affinity chromatography, was purchased from Carna Biosciences (product no 02-145) and used as enzyme. As substrate for the kinase reaction the biotinylated peptide biotin-Ahx-IKKRKLTRRKSLKG (C-terminus in amide form) was used, which can be purchased e.g. from the company Biosyntan (Berlin-Buch, Germany).
For the assay 50 nL of a 100 fold concentrated solution of the test compound in DMSO was pipetted into a black low volume 384 well microtiter plate (Greiner Bio-One, Frickenhausen, Germany), 2 μL of a solution of MKNK1 in aqueous assay buffer [50 mM HEPES pH 7.5, 5 mM MgCl2, 1.0 mM dithiothreitol, 0.005% (v/v) Nonidet-P40 (Sigma)] was added and the mixture was incubated for 15 min at 22° C. to allow pre-binding of the test compounds to the enzyme before the start of the kinase reaction. Then the kinase reaction was started by the addition of 3 μL of a solution of adenosine-tri-phosphate (ATP, 3.3 mM=>final conc. in the 5 μL assay volume is 2 mM) and substrate (0.1 μM=>final conc. in the 5 μL assay volume is 0.06 μM) in assay buffer and the resulting mixture was incubated for a reaction time of 30 min at 22° C. The concentration of MKNK1 was adjusted depending of the activity of the enzyme lot and was chosen appropriate to have the assay in the linear range, typical concentrations were in the range of 0.003 μg/mL. The reaction was stopped by the addition of 5 μL of a solution of TR-FRET detection reagents (5 nM streptavidine-XL665 [Cisbio Bioassays, Codolet, France] and 1 nM anti-ribosomal protein […] (pSer236)-antibody from Invitrogen [#44921G] and 1 nM LANCE EU-W1024 labeled ProteinG [Perkin-Elmer, product no. AD0071]) in an aqueous EDTA-solution (100 mM EDTA, 0.1% (w/v) bovine serum albumin in 50 mM HEPES pH 7.5).
The resulting mixture was incubated for 1 h at 22° C. to allow the formation of complex between the phosphorylated biotinylated peptide and the detection reagents. Subsequently the amount of phosphorylated substrate was evaluated by measurement of the resonance energy transfer from the Eu-chelate to the streptavidine-XL. Therefore, the fluorescence emissions at 620 nm and 665 nm after excitation at 350 nm were measured in a TR-FRET reader, e.g. a Rubystar (BMG Labtechnologies, Offenburg, Germany) or a Viewlux (Perkin-Elmer). The ratio of the emissions at 665 nm and at […] was taken as the measure for the amount of phosphorylated substrate. The data were normalised (enzyme reaction without inhibitor=0% inhibition, all other assay components but no enzyme=100% inhibition). […] Table 1a lists MKNK1 high ATP IC50 values of some compounds of the present invention.

T1 sequence (Q9BUB5 1-424 isoform Q9BUB5-2 T344D): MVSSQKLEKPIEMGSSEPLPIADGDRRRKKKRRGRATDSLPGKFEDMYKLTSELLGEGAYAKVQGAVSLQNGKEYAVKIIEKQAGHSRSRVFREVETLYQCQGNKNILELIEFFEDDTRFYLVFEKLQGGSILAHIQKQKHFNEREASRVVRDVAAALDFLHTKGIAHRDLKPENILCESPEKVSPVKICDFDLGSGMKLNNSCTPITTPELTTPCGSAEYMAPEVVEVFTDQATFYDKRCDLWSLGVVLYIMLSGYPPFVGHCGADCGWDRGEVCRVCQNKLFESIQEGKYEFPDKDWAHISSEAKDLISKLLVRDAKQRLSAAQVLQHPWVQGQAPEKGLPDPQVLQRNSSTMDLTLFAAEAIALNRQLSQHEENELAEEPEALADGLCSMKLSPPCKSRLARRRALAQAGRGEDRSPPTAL

| IC50 [nM] | SMILES |
| --- | --- |
| 17 | O=C(NCC1CCc2c(sc3ncnc(Nc4ccc5[nH]ncc5c4)c23)C1)[C@@H](O)Cc1ccccc1 (mixture of isomers) [Example 14, (2R)-2-Hydroxy-N-{[(7RS)-4-(1H-indazol-5-ylamino)-5,6,7,8-tetrahydro[1]benzothieno[2,3-d]pyrimidin-7-yl]methyl}-3-phenylpropanamide] |
| 20.8 | N[C@@H](CCO)C(=O)NCC1CCc2c(sc3ncnc(Nc4ccc5[nH]ncc5c4)c23)C1 (mixture of isomers) [Example 16, N-{[(7RS)-4-(1H-Indazol-5-ylamino)-5,6,7,8-tetrahydro[1]benzothieno[2,3-d]pyrimidin-7-yl]methyl}-L-homoserinamide] |
| 5 | COc1cc2[nH]ncc2cc1Nc1ncnc2sc3c(c12)CCC(CNC(=O)[C@@H](O)Cc1ccccc1)C3 (mixture of isomers) [Example 23, (2R)-2-Hydroxy-N-({(7RS)-4-[(6-methoxy-1H-indazol-5-yl)amino]-5,6,7,8-tetrahydro[1]benzothieno[2,3-d]pyrimidin-7-yl}methyl)-3-phenylpropanamide] |
| 31.7 | OCC1CCc2c(sc3ncnc(Nc4ccc5[nH]ncc5c4)c23)C1 (racemic) [Example 1, (RS)-[4-(1H-Indazol-5-ylamino)-5,6,7,8-tetrahydro[1]benzothieno[2,3-d]pyrimidin-7-yl]methanol] |
| 39.1 | CC(C)(O)C1CCc2c(sc3ncnc(Nc4ccc5[nH]ncc5c4)c23)C1 (racemic) [Example 4, (RS)-2-[4-(1H-Indazol-5-ylamino)-5,6,7,8-tetrahydro[1]benzothieno[2,3-d]pyrimidin-7-yl]propan-2-ol] |
| 124 | [N-]=[N+]=NCC1CCc2c(sc3ncnc(Nc4ccc5[nH]ncc5c4)c23)C1 (racemic) [Example 6, (RS)-7-(Azidomethyl)-N-(1H-indazol-5-yl)-5,6,7,8-tetrahydro[1]benzothieno[2,3-d]pyrimidin-4-amine] |
| 155 | NCC1CCc2c(sc3ncnc(Nc4ccc5[nH]ncc5c4)c23)C1 (racemic) [Example 7, (RS)-7-(Aminomethyl)-N-(1H-indazol-5-yl)-5,6,7,8-tetrahydro[1]benzothieno[2,3-d]pyrimidin-4-amine] |
| 34.4 | CC(C)NC(=O)NCC1CCc2c(sc3ncnc(Nc4ccc5[nH]ncc5c4)c23)C1 (racemic) [Example 8, (RS)-1-{[4-(1H-Indazol-5-ylamino)-5,6,7,8-tetrahydro[1]benzothieno[2,3-d]pyrimidin-7-yl]methyl}-3-propan-2-ylurea] |
| 30.2 | CC(C)OC(=O)NCC1CCc2c(sc3ncnc(Nc4ccc5[nH]ncc5c4)c23)C1 (racemic) [Example 9, (RS)-Propan-2-yl {[4-(1H-indazol-5-ylamino)-5,6,7,8-tetrahydro[1]benzothieno[2,3-d]pyrimidin-7-yl]methyl}carbamate] |
| 11 | CC(C)C(=O)NCC1CCc2c(sc3ncnc(Nc4ccc5[nH]ncc5c4)c23)C1 (racemic) [Example 10, (RS)—N-{[4-(1H-Indazol-5-ylamino)-5,6,7,8-tetrahydro[1]benzothieno[2,3-d]pyrimidin-7-yl]methyl}-2-methylpropanamide] |
| 16.4 | CC(C)S(=O)(=O)NCC1CCc2c(sc3ncnc(Nc4ccc5[nH]ncc5c4)c23)C1 (racemic) [Example 11, (RS)—N-{[4-(1H-Indazol-5-ylamino)-5,6,7,8-tetrahydro[1]benzothieno[2,3-d]pyrimidin-7-yl]methyl}propane-2-sulfonamide] |
| 19.6 | CC(O)C(=O)NCC1CCc2c(sc3ncnc(Nc4ccc5[nH]ncc5c4)c23)C1 (racemic) [Example 12, (2RS)-2-Hydroxy-N-{[(7RS)-4-(1H-indazol-5-ylamino)-5,6,7,8-tetrahydro[1]benzothieno[2,3-d]pyrimidin-7-yl]methyl}propanamide] |
| 12.4 | CC(C)(O)C(=O)NCC1CCc2c(sc3ncnc(Nc4ccc5[nH]ncc5c4)c23)C1 (racemic) [Example 13, (RS)-2-Hydroxy-N-{[4-(1H-indazol-5-ylamino)-5,6,7,8-tetrahydro[1]benzothieno[2,3-d]pyrimidin-7-yl]methyl}-2-methylpropanamide] |
| 3.2 | COc1cc2[nH]ncc2cc1Nc1ncnc2sc3c(c12)CCC(CO)C3 (racemic) [Example 17, (RS)-{4-[(6-Methoxy-1H-indazol-5-yl)amino]-5,6,7,8-tetrahydro[1]benzothieno[2,3-d]pyrimidin-7-yl}methanol] |
| 23.9 | COc1cc2[nH]ncc2cc1Nc1ncnc2sc3c(c12)CCC(CN=[N+]=[N-])C3 (racemic) [Example 18, (RS)-7-(Azidomethyl)-N-(6-methoxy-1H-indazol-5-yl)-5,6,7,8-tetrahydro[1]benzothieno[2,3-d]pyrimidin-4-amine] |
| 6.2 | COc1cc2[nH]ncc2cc1Nc1ncnc2sc3c(c12)CCC(CN)C3 (racemic) [Example 19, (RS)-7-(aminomethyl)-N-(6-methoxy-1H-indazol-5-yl)-5,6,7,8-tetrahydro[1]benzothieno[2,3-d]pyrimidin-4-amine] |
| 3.1 | COc1cc2[nH]ncc2cc1Nc1ncnc2sc3c(c12)CCC(CNC(=O)NC(C)C)C3 (racemic) [Example 20, (RS)-1-({4-[(6-Methoxy-1H-indazol-5-yl)amino]-5,6,7,8-tetrahydro[1]benzothieno[2,3-d]pyrimidin-7-yl}methyl)-3-propan-2-ylurea] |
| 2.1 | COc1cc2[nH]ncc2cc1Nc1ncnc2sc3c(c12)CCC(CNC(=O)C(C)C)C3 (racemic) [Example 21, (RS)—N-({4-[(6-Methoxy-1H-indazol-5-yl)amino]-5,6,7,8-tetrahydro[1]benzothieno[2,3-d]pyrimidin-7-yl}methyl)-2-methylpropanamide] |
| 4 | COc1cc2[nH]ncc2cc1Nc1ncnc2sc3c(c12)CCC(CNC(=O)C(C)(C)O)C3 (racemic) [Example 22, (RS)-2-Hydroxy-N-({4-[(6-methoxy-1H-indazol-5-yl)amino]-5,6,7,8-tetrahydro[1]benzothieno[2,3-d]pyrimidin-7-yl}methyl)-2-methylpropanamide] |
| 124 | Cc1cc2[nH]ncc2cc1Nc1ncnc2sc3c(c12)CCC(C)C3 (racemic) [Example 25, (RS)-7-Methyl-N-(6-methyl-1H-indazol-5-yl)-5,6,7,8-tetrahydro[1]benzothieno[2,3-d]pyrimidin-4-amine] |
| 327 | CC1CCc2c(sc3ncnc(Nc4cc5cn[nH]c5cc4Cl)c23)C1 (racemic) [Example 26, (RS)—N-(6-Chloro-1H-indazol-5-yl)-7-methyl-5,6,7,8-tetrahydro[1]benzothieno[2,3-d]pyrimidin-4-amine] |
| 66.3 | COc1cc2[nH]ncc2cc1Nc1ncnc2sc3c(c12)CCC(C)C3 (racemic) [Example 27, (RS)—N-(6-Methoxy-1H-indazol-5-yl)-7-methyl-5,6,7,8-tetrahydro[1]benzothieno[2,3-d]pyrimidin-4-amine] |
| 67.1 | CC1CCc2c(sc3ncnc(Nc4cc5cn[nH]c5cc4F)c23)C1 (racemic) [Example 28, (RS)—N-(6-Fluoro-1H-indazol-5-yl)-7-methyl-5,6,7,8-tetrahydro[1]benzothieno[2,3-d]pyrimidin-4-amine] |
| 984 | COCC1(OC)CCc2c(sc3ncnc(Nc4cc5cn[nH]c5cc4C)c23)C1 (racemic) [Example 29, (RS)-7-methoxy-7-(methoxymethyl)-N-(6-methyl-1H-indazol-5-yl)-5,6,7,8-tetrahydro[1]benzothieno[2,3-d]pyrimidin-4-amine] |

| SMILES | IC50 [nM] |
| --- | --- |
| O=P(OCC1CCc2c(sc3ncnc(Nc4ccc5[nH]ncc5c4)c23)C1)(Oc1ccccc1)Oc1ccccc1 (racemic) [Example 5, (RS)-[4-(1H-Indazol-5-ylamino)-5,6,7,8-tetrahydro[1]benzothieno[2,3-d]pyrimidin-7-yl]methyl diphenyl phosphate] | 205 |
